Test results as given in ChEMBL document CHEMBL3779812, “Synthesis and evaluation of the cytotoxic activity of novel ethyl 4-[4-(4-substitutedpiperidin-1-yl)]benzyl-phenylpyrrolo[1,2-a]quinoxaline-carboxylate derivatives in myeloid and lymphoid leukemia cell lines” (Eur J Med Chem, 2016).

What was measured:
[1] = Antiproliferative activity against human HL60 cells measured after 3 days by MTS assay; type: functional, cell-based; conditions: HL-60, 72 h
[2] = Antiproliferative activity against human U937 cells measured after 3 days by MTS assay; type: functional, cell-based; conditions: U-937, 72 h
[3] = Antiproliferative activity against human U266 cells measured after 3 days by MTS assay; type: functional, cell-based; conditions: U-266, 72 h
PBMC = assay: Cytotoxicity against PHA induced human PBMC after 3 days by MTS assay; type: cell-based; conditions: 72 h
K562 [4] = assay: Antiproliferative activity against human K562 cells measured after 3 days by MTS assay; type: functional, cell-based; conditions: K562, 72 h
Jurkat = assay: Antiproliferative activity against human Jurkat cells measured after 3 days by MTS assay; type: functional, cell-based; conditions: 72 h
[5] = Selectivity index, ratio of IC50 for human PBMC to IC50 for human U937 cells; design: species or system U-937
[6] = Selectivity index, ratio of IC50 for human PBMC to IC50 for human U266 cells; design: species or system U-266
[7] = Selectivity index, ratio of IC50 for human PBMC to IC50 for human Jurkat cells
[8] = Selectivity index, ratio of IC50 for human PBMC to IC50 for human K562 cells
K562 [9] = assay: Induction of apoptosis in human K562 cells at 10 uM measured on day 3 by APC-Annexin-V staining based flow cytometry; type: functional

Row | Compound | IC50 (K562 [4]) | IC50 (Jurkat) | IC50 [1] | IC50 [2] | IC50 [3] | IC50 (PBMC) | Ratio IC50 [5] | Ratio IC50 [6] | Ratio IC50 [7] | Ratio IC50 [8] | Activity (K562 [9])
1 | O=c1[nH]c2ccccc2n1C1CCN(Cc2ccc(-c3nc4ccccc4n4ccc(-c5ccccc5)c34)cc2)CC1 | – | – | 2 µM | – | – | – | – | – | – | – | –
2 | O=c1cc(N2CCOCC2)oc2c(-c3ccccc3)cccc12 [LY-294002] | 38 µM | 22 µM | 14 µM | 14 µM | 46 µM | > 50 µM | – | – | – | – | –
3 | CCOC(=O)c1cc(-c2ccccc2)n2c1c(-c1ccc(CN3CCC(c4nnc(-c5ccccn5)[nH]4)CC3)cc1)nc1ccccc12 | 12 µM | 5 µM | 24 µM | 11 µM | 8 µM | 50 µM | – | – | – | – | –
4 | CCOC(=O)c1cn2c(c(-c3ccc(CN4CCC(n5c(=O)[nH]c6ccccc65)CC4)cc3)nc3ccccc32)c1-c1ccccc1 | 9 µM | 4 µM | 3.5 µM | > 50 µM | 10 µM | 41.3 µM | – | – | – | – | –
5 | O=c1[nH]c2ccccc2n1C1CCN(Cc2ccc(-c3nc4ccccc4n4cccc34)cc2)CC1 | 4.5 µM | – | – | – | – | – | – | – | – | – | –
6 | CCOC(=O)c1cc(-c2ccccc2)n2c1c(-c1ccc(CN3CCC(n4c(=O)[nH]c5ccccc54)CC3)cc1)nc1ccccc12 | 8 µM | 4 µM | 6 µM | 9 µM | 9 µM | > 50 µM | – | – | >12.5 | – | –
7 | O=c1[nH]c2ccccc2n1C1CCN(Cc2ccc(-c3nc4ccccc4n4cc5ccccc5c34)cc2)CC1 | 5 µM | 5 µM | 5 µM | – | – | – | – | – | – | – | –
8 | O=c1[nH]c2ccccc2n1C1CCN(Cc2ccc(-c3nc4cc5[nH]cnc5cc4nc3-c3ccccc3)cc2)CC1 | 17 µM | 3.5 µM | 5.5 µM | 8 µM | – | > 50 µM | – | – | – | – | –
9 | CCOC(=O)c1c(-c2ccccc2)cn2c1c(-c1ccc(CN3CCC(c4nnc(-c5ccccn5)[nH]4)CC3)cc1)nc1ccccc12 | 14 µM | 5 µM | 12 µM | 7 µM | > 50 µM | 16 µM | – | – | – | – | –
10 | CCOC(=O)c1cc2c(-c3ccc(CN4CCC(n5c(=O)[nH]c6ccccc65)CC4)cc3)nc3ccccc3n2c1-c1ccccc1 | 8.5 µM | 6.5 µM | > 50 µM | > 50 µM | > 50 µM | > 50 µM | – | – | – | – | –

Continued by falling IC50 (K562 [4]), values first:

Row | IC50 (K562 [4]) | IC50 (Jurkat) | Compound | IC50 [1] | IC50 [2] | IC50 [3] | IC50 (PBMC) | Ratio IC50 [5] | Ratio IC50 [6] | Ratio IC50 [7] | Ratio IC50 [8] | Activity (K562 [9])
11 | 7 µM | 6 µM | CCOC(=O)c1cc(-c2ccccc2)n2c1c(-c1ccc(CN3CCC(c4nc5ccc(F)cc5[nH]4)CC3)cc1)nc1ccccc12 | 8 µM | 4 µM | 4 µM | 50 µM | 12.5 | 12.5 | – | – | –
12 | 7 µM | 2 µM | CCOC(=O)c1cn2c(c(-c3ccc(CN4CCC(c5nnc(-c6ccccn6)[nH]5)CC4)cc3)nc3ccccc32)c1-c1ccccc1 | 5 µM | 7 µM | 5 µM | 8 µM | – | – | – | – | –
13 | 4 µM | 41 µM | CCOC(=O)c1c(-c2ccccc2)cn2c1c(-c1ccc(CN3CCC(n4c(=O)[nH]c5ccccc54)CC3)cc1)nc1ccccc12 | > 50 µM | > 50 µM | > 50 µM | > 50 µM | – | – | – | >12.5 | –
14 | 3.5 µM | 3 µM | CCOC(=O)c1cc2c(-c3ccc(CN4CCC(c5nnc(-c6ccccn6)[nH]5)CC4)cc3)nc3ccccc3n2c1-c1ccccc1 | 7 µM | 8 µM | 3 µM | 12 µM | – | – | – | – | –
15 | 3 µM | 3.5 µM | CCOC(=O)c1cc2c(-c3ccc(CN4CCC(c5nc6ccc(F)cc6[nH]5)CC4)cc3)nc3ccccc3n2c1-c1ccccc1 | 3 µM | 3 µM | 3 µM | 13 µM | – | – | – | – | –
16 | 3 µM | 5 µM | CCOC(=O)c1c(-c2ccccc2)cn2c1c(-c1ccc(CN3CCC(c4nc5ccc(F)cc5[nH]4)CC3)cc1)nc1ccccc12 | 19 µM | 21 µM | 3.5 µM | 14 µM | – | – | – | – | –
17 | 3 µM | 5 µM | CCOC(=O)c1cn2c(c(-c3ccc(CN4CCC(c5nc6ccc(F)cc6[nH]5)CC4)cc3)nc3ccccc32)c1-c1ccccc1 | 10 µM | – | 18 µM | > 50 µM | – | – | – | >16.7 | 92%
